Test results: PubChem BioAssay (NCI)
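Compound exposure: 48 hours, 5 concentrations, 96-well plates. TGI: concentration producing complete growth inhibition.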

Legend:
Assay in all cases: growth of human tumour cells (NCI), 48 h
[1] = system: HCT-116 colon
[2] = system: NCI-H23 lung
[3] = system: SF-539 CNS
[4] = system: OVCAR-3 ovarian
[5] = system: SF-268 CNS
[6] = system: NCI/ADR-RES ovarian
[7] = system: A549 NSCLC
[8] = system: RPMI-8226 leukemia
[9] = system: SR leukemia
[10] = system: HS 578T breast
[11] = system: U251 CNS
[12] = system: OVCAR-8 ovarian
[13] = system: COLO 205 colon
[14] = system: 786-0 renal
[15] = system: TK-10 renal
[16] = system: NCI-H460 lung
[17] = system: T-47D breast
[18] = system: SK-OV-3 ovarian
[19] = system: NCI-H522 lung
[20] = system: HT29 colon
[21] = system: HL-60(TB) leukemia
[22] = system: K-562 leukemia
[23] = system: UO-31 renal
[24] = system: PC-3 prostate
[25] = system: HCC-2998 colon
[26] = system: SW-620 colon
[27] = system: SF-295 CNS
[28] = system: SN12C renal
[29] = system: CCRF-CEM leukemia
[30] = system: MOLT-4 leukemia
[31] = system: M14 melanoma
[32] = system: CAKI-1 renal
[33] = system: KM12 colon
[34] = system: ACHN renal
[35] = system: UACC-257 melanoma
[36] = system: SNB-75 CNS
[37] = system: OVCAR-4 ovarian
[38] = system: SK-MEL-5 melanoma
[39] = system: DU-145 prostate
[40] = system: BT-549 breast
[41] = system: SNB-19 CNS
[42] = system: MDA-MB-435
[43] = system: UACC-62 melanoma
[44] = system: HOP-62 NSCLC
[45] = system: SK-MEL-28 melanoma
[46] = system: HCT-15 colon
[47] = system: MDA-N
[48] = system: EKVX NSCLC
[49] = system: MDA-MB-231 breast
[50] = system: RXF 393 renal
[51] = system: MCF7 breast
[52] = system: LOX IMVI melanoma
[53] = system: IGROV1 ovarian
[54] = system: OVCAR-5 ovarian
[55] = system: SK-MEL-2 melanoma
[56] = system: HOP-92 NSCLC
[57] = system: MALME-3M melanoma
[58] = system: A498 renal
[59] = system: NCI-H226 lung

Measured: TGI

COC(=O)c1ccc(/C=C2\Cc3ccccc3C2=O)cc1
not listed: [52] | [53] | [54] | [55] | [56] | [57] | [58] | [59]
> 100 µM: all other assays above

Cc1ccc(S(=O)(=O)NC(=O)NC(C(=O)O)C(C)O)cc1 (centres undefined)
not listed: [4] | [25] | [32] | [42] | [48] | [58] | [59]
> 100 µM: all other assays above

C[n+]1c2ccccc2c(C(=O)NC(CCCN=C(N)N)C(=O)O)c2ccccc21 (centres undefined)
not listed: [19] | [21] | [29] | [32] | [50] | [56] | [59]
> 100 µM: all other assays above

CCOC(=O)CCSS(=O)(=O)C(F)(F)F
not listed: [3] | [5] | [9] | [10] | [19] | [20] | [22] | [30] | [49] | [57]
> 100 µM: all other assays above
